The values that follow come from patent publication US10913757B2, “Hydroxycinnamic derivatives, methods and uses thereof” (UNIVERSIDADE DO PORTO, priority 2016, dated 2021).

Data set [1] in a line: Iron (II) chelating properties, ferrozine assay. Type of data set: biochemical. The conditions noted are these: 100 μM, EDTA=100%, FIG. 2. As for the experimental part:
In an embodiment, AntiOxCINs iron (II) chelating properties were evaluated by the ferrozine assay using ethylenediaminetetracetic acid (EDTA) as reference.
In an embodiment, AntiOxCINs iron chelating properties were evaluated by the spectrophotometric ferrozine method performed in a multiplate reader (Powerwave XS Microplate Reader) of Bio-Tech instruments.
In an embodiment, the AntiOxCINs iron chelating properties were evaluated as follows: in each well, a solution of the test compound (100 μM) and ammonium iron (II) sulphate in ammonium acetate (20 μM) were added, incubated for 10 min and the absorbance was read at 562 nm. Then, a freshly prepared solution of ferrozine (5 mM) was added to each well (96 μM final concentration). After a new incubation at 37° C. for 10 min period, the absorbance of [Fe(ferrozine)3]^2+ complex was measured at 562 nm. Blank wells were run using DMSO instead of the test compounds. EDTA was used as a reference. All compounds were tested at a final concentration of 100 μM. The absorbance of the first reading was subtracted to the final values to abolish any absorbance due to the test compounds. Data are means±SEM of three independent experiments and are expressed as % of Fe(II) chelation (EDTA=100%).

Data set [2] deals with rat liver mitochondria (RLM) membranes. The data set can be described thus: RLM lipid peroxidation, TBARS assay (FeSO4/H2O2/ascorbate). The class given is biochemical. The conditions noted are these: 5 μM pre-incubation, FIG. 4A. As for the experimental part:
In an embodiment, and as an example, AntiOxCINs antioxidant performance, on the protection of lipid peroxidation of RLM membranes was determined. Two different oxidative stressor agents, FeSO4/H2O2/ascorbate and ADP/FeSO4, and two end-points, TBARS production and oxygen-consumption, respectively, have been used. MitoQ was used as reference (FIGS. 4 and 5).
In an embodiment, the evaluation of AntiOxCINs functional mitochondrial toxicity profile was performed in rat liver mitochondria (RLM). RLM were prepared by tissue homogenization followed by differential centrifugations in ice-cold buffer containing 250 mM sucrose, 10 mM HEPES (pH 7.4), 1 mM EGTA, and 0.1% fat-free bovine serum albumin. […] The protein concentration was determined by the biuret assay using BSA as a standard.
In an embodiment, the effect of AntiOxCINs on RLM lipid peroxidation was measured by thiobarbituric acid reactive species (TBARS) assay as follows: RLM (2 mg protein/ml) were incubated in 0.8 mL medium containing 100 mM KCl, 10 mM Tris-HCl and pH 7.6, at 37° C., supplemented with 5 mM glutamate/2.5 mM malate as substrate. […] The fluorescence of aliquots (250 μL) of the organic layer was analyzed in a plate reader (λEx=515 nm; λEm=553 nm) for TBARS. […] Data are means±SEM of three independent experiments and are expressed as % of control (control=100%).

The test system of data set [3] is rat liver mitochondria (RLM). Put plainly: Mitochondrial respiration of isolated RLM (Clark-type oxygen electrode). Type of data set: biochemical. As for the experimental part:
(§1) In an embodiment, and as an example, AntiOxCINs and MitoQ toxicity effects on the mitochondrial bioenergetics, namely on RLM ΔΨ and mitochondrial respiration parameters, were measured. The […] represents the main component of the electrochemical gradient generated by mitochondrial respiration and accounts for more than 90% of the total available energy. For mitochondrial respiration assays, glutamate/malate (for complex I) and succinate (for complex II) were used as substrates. In addition, the mitochondrial oxidative phosphorylation coupling index, known as respiratory control ratio (RCR, state 3/state 4 respiration) and ADP/O index (the coupling between ATP synthesis and oxygen consumption) were also calculated. AntiOxCINs and MitoQ were tested at antioxidant-relevant concentrations, with 10 μM being the highest concentration.
(§2) In an embodiment, the evaluation of AntiOxCINs functional mitochondrial toxicity profile was performed in rat liver mitochondria (RLM). […] The protein concentration was determined by the biuret assay using BSA as a standard.
In an embodiment, the evaluation of AntiOxCINs effect on mitochondrial respiration was performed as follows: the respiration of isolated RLM was evaluated polarographically with a Clark-type oxygen electrode, connected to a suitable recorder in a 1 mL thermostated water-jacketed chamber with magnetic stirring, at 37° C.^1. […] Increasing concentrations of AntiOxCINs (2.5-10 μM) were added to the reaction medium containing respiratory substrates glutamate/malate (10 mM and 5 mM respectively) or succinate (5 mM) and RLM (1 mg) and allowed to incubate for a 5 min period prior to the assay. State 2 was considered as the respiration during the 5 min incubation time with AntiOxCINs. […] State 4 was determined after ADP phosphorylation finished. Subsequent addition of oligomycin (2 μg/ml) inhibited ATP-synthase and originated the oligomycin-inhibition respiration state. Finally, 1 μM FCCP was added to induce uncoupled respiration.

Data set [4] relates to rat liver mitochondria (RLM). Put plainly: Mitochondrial transmembrane electric potential (ΔΨ) of RLM, safranine fluorescence. Type of data set: biochemical. As for the experimental part:
as §1, §2
Then, 1 μM FCCP was added at the end of all experiments to depolarize mitochondria. ΔΨ was calculated using a calibration curve obtained when RLM were incubated in a K^+-free reaction medium containing 200 mM sucrose, 1 mM NaH2PO4, 10 mM Tris (pH 7.4) and 10 μM EGTA, supplemented with 0.4 μg valinomicin. […] “Repolarization” corresponded to the recovery of membrane potential after the complete phosphorylation of ADP added. Lag phase reflected the time required to phosphorylate the added ADP. […] Data are means±SEM of five independent experiments.

The test system of data set [5] is mitochondrial permeability transition pore (mPTP) of RLM. The data set can be described thus: Mitochondrial permeability transition pore (mPTP) opening, mitochondrial swelling. The class given is biochemical, rat. The conditions noted are these: 2.5, 5 and 10 μM, pre-incubated 5 min before calcium, FIG. 7A-C. As for the experimental part:
In an embodiment, the AntiOxCINs effects on mitochondrial permeability transition pore (mPTP) opening were evaluated. In general, less lipophilic AntiOxCINs had no effect on mPTP opening for all tested concentrations (FIG. 7A-C).
In an embodiment, the evaluation of AntiOxCINs functional mitochondrial toxicity profile was performed in rat liver mitochondria (RLM). RLM were prepared by tissue homogenization followed by differential centrifugations in ice-cold buffer containing 250 mM sucrose, 10 mM HEPES (pH 7.4), 1 mM EGTA, and 0.1% fat-free bovine serum albumin. After obtaining a crude mitochondrial preparation, pellets were washed twice and resuspended in washing buffer (250 mM sucrose and 10 mM HEPES, pH 7.4). The protein concentration was determined by the biuret assay using BSA as a standard.
In an embodiment, the effect of AntiOxCINs on mitochondrial permeability transition pore opening were measured as follows: mitochondrial swelling was estimated by measuring the alterations of light scattered from a mitochondrial suspension, as monitored spectrophotometrically at 540 nm. Increasing concentrations of AntiOxCINs (2.5-10 μM) were added to the reaction medium (200 mM sucrose, 1 mM KH2PO4, 10 mM Tris (pH 7.4), 5 mM succinate and 10 μM EGTA supplemented with 1.5 μM rotenone), in the presence of RLM (1 mg), and allowed to incubate for a 5 min period before the assay. The experiments were initiated by the addition of a suitable concentration of Ca^2+ (15-50 μM), titrated every day. […] The reaction was stirred continuously and the temperature maintained at 37° C. Data are means±SEM of three independent experiments and are expressed as Aabsorbance at 540 nm.

For `O=C(O)CN(CCN(CC(=O)O)CC(=O)O)CC(=O)O` [EDTA, ethylenediaminetetracetic acid, reference compound], the “iron (II) chelation” value in data set [1] is recorded as “able to chelate all the iron in solution”.
Regarding `COC1=C(OC)C(=O)C(CCCCCCCCCC[P+](c2ccccc2)(c2ccccc2)c2ccccc2)=C(C)C1=O.CS(=O)(=O)[O-]` [MitoQ, [10-(4,5-dimethoxy-2-methyl-3,6-dioxo-1,4-cyclohexadien-1-yl)decyl]triphenylphosphonium methanesulfonate, reference compound], the “prevention of mitochondria lipid peroxidation (TBARS levels)” value in data set [2] is listed as “effectively inhibited lipid peroxidation”. Further, the “toxicity on the mitochondrial bioenergetic apparatus of RLM” value in data set [3] (2.5 μM, FIG. 6A and Table 2) is on record as “caused toxicity”. Moreover, in data set [3] (concentrations up to 5 μM, glutamate/malate, FIG. 6A), the “effect on respiratory states” value was “increase on state 2, state 4 and oligomycin-inhibited respiration and a decrease on state 3 and FCCP-uncoupled respiration”. The ADP/O in data set [3] (glutamate/malate, 2.5 μM) was 2.2 ± 0.1; in data set [3] (glutamate/malate, 5 μM) it was 1.9 ± 0.1; in data set [3] (glutamate/malate, 10 μM), 2.0 ± 0.2; in data set [3] (succinate, 2.5 μM) it was 1.3 ± 0.1; in data set [3] (succinate, 5 μM) it was 1.3 ± 0.1. In addition, the “RCR (respiratory control ratio, state 3/state 4)” value in data set [3] (glutamate/malate, 2.5 μM) amounted to 4.2 ± 0.6; in data set [3] (glutamate/malate, 5 μM) it was 2.7 ± 0.3; in data set [3] (glutamate/malate, 10 μM), 1.3 ± 0.1; in data set [3] (succinate, 2.5 μM), 2.6 ± 0.2; in data set [3] (succinate, 5 μM), 2.4 ± 0.2. Besides, in data set [3] (succinate, highest concentration tested, FIG. 6A), the “coupling of RLM” value is “completely uncoupled”. Besides, the “repolarization after ADP-induced depolarization” value in data set [4] (10 μM) is given as “no repolarization occurred”. The “ADP-induced depolarization (ΔΨ in - mV)” value in data set [4] (glutamate/malate, 2.5 μM) is recorded as 173.0 ± 9.3 mV; in data set [4] (glutamate/malate, 5 μM), 173.5 ± 8.9^ mV; in data set [4] (succinate, 2.5 μM), 162.1 ± 6.0 mV; in data set [4] (succinate, 5 μM) it was 157.0 ± 6.4^ mV. Further, the “Lag Phase” value in data set [4] (glutamate/malate, 2.5 μM) was found to be 86.5 ± 5.6 s; in data set [4] (glutamate/malate, 5 μM), 84.5 ± 7.1 s; in data set [4] (succinate, 2.5 μM), 104.8 ± 9.9 s; in data set [4] (succinate, 5 μM), 92.6 ± 19.4 s. Further, the “Maximum potential (ΔΨ in - mV)” value in data set [4] (glutamate/malate, 2.5 μM) is recorded as 195.7 ± 10.8 mV; in data set [4] (glutamate/malate, 5 μM), 188.3 ± 10.6 mV; in data set [4] (glutamate/malate, 10 μM), 113.9 ± 10.2 mV; in data set [4] (succinate, 2.5 μM) it was 181.6 ± 8.3 mV; in data set [4] (succinate, 5 μM), 170.2 ± 8.1 mV; in data set [4] (succinate, 10 μM) it was 108.9 ± 3.8 mV. The “Repolarization Potential (ΔΨ in - mV)” value in data set [4] (glutamate/malate, 2.5 μM) stood at 191.1 ± 11.7 mV; in data set [4] (glutamate/malate, 5 μM) it was 185.0 ± 9.4 mV; in data set [4] (succinate, 2.5 μM), 182.7 ± 9.1 mV; in data set [4] (succinate, 5 μM), 170.8 ± 8.7 mV. Besides, the “effect on calcium-dependent mPTP opening” value in data set [5] is “no effect in mPTP induction”. For the same compound, the “iron (II) chelation” value in data set [1] was “not shared by MitoQ”.
